Data: ChEMBL document CHEMBL1126164, “SR 46559 A and related aminopyridazines are potent muscarinic agonists with no cholinergic syndrome” (Bioorg Med Chem Lett, 1992)
Where a chain is given by its changes, count along the chain named. The source made the active and inactive calls. No cut-off for these calls is given here.

Experiments:
[1] = molecular target: T1, Muscarinic acetylcholine receptor M1 (Rattus norvegicus, UniProt P08482); assay: Displacement of [3H]pirenzepine from cerebral Muscarinic acetylcholine receptor M1
T1 sequence (P08482 whole entry): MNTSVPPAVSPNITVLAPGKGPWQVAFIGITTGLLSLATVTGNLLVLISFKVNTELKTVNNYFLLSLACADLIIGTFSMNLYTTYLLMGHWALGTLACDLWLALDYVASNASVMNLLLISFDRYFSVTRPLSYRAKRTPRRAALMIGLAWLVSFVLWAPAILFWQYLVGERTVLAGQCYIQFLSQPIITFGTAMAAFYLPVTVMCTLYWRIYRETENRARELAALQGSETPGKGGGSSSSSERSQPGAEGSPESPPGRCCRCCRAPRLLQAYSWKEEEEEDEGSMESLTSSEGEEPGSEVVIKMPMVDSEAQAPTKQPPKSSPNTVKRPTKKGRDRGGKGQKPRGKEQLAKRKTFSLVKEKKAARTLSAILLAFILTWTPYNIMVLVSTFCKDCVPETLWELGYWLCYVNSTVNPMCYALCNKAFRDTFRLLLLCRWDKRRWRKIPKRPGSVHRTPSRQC

Mus musculus [2] = assay: Percent inhibition of the number of pirenzepine-induced rotations in mice, on oral administration (3 mg/kg) 4 hr before the test; format: functional
[3] = (§1) Lethal dose in mice after oral administration; format: toxicity; details: mouse, in vivo
Mus musculus [4] = assay: Percent inhibition of the number of pirenzepine-induced rotations in mice, on orally administration (0.3 mg/kg) 4 hr before the test; format: functional
Mus musculus [5] = assay: Percent inhibition of the number of pirenzepine-induced rotations in mice, on oral administration (3 mg/kg) 4 hr before the test; Inactive; format: functional, organism-based
Mus musculus [6] = assay: Percent inhibition of the number of pirenzepine-induced rotations in mice, on oral administration(0.3 mg/kg) 4 hr before the test; Inactive; format: functional, organism-based
Mus musculus [7] = species on record: Mus musculus; assay: Effective dose required to antagonize rotations induced in mice by intrastriatal injection of pirenzepine.; format: functional
Mus musculus [8] = species on record: Mus musculus; assay: Compound was tested for the ability to stimulate diacylglycerol formation antagonized by atropine.; format: functional, organism-based
Mus musculus [9] = assay: Percent inhibition of the number of pirenzepine-induced rotations in mice, on oral administration (0.3 mg/kg) 4 hr before the test; format: functional
Rattus norvegicus [10] = species on record: Rattus norvegicus; assay: Compound was tested for inhibitory concentration required for the K+ release of [3H]- GABA from rat striatal slices and reduced at 0.5 and 1 uM; format: functional
Rattus norvegicus [11] = assay: Effective dose required to potentiate haloperidol induced catalepsy in rats (p.o.); format: functional; details: po
Mus musculus [12] = species on record: Mus musculus; assay: Effective dose required to antagonize pirenzepine-induced deficit in passive avoidance learning.; format: functional
Mus musculus [13] = species on record: Mus musculus; assay: Effective dose required to antagonize scopolamine-induced deficit in passive avoidance learning.; format: functional
Mus musculus [14] = assay: Compound was evaluated for toxicity up to 300 mg/kg; NT - No Toxicity; format: functional, organism-based; design: dose 300 mg/kg
[15] = molecular target: T2, Muscarinic acetylcholine receptor M1 (Homo sapiens, UniProt P11229); assay: Compound was tested for its affinity for muscarinic M1 receptor
T2 sequence (P11229 whole entry): T1 sequence (P08482 whole entry) with V5A, S254T, S309P, K320R, G337A, V413I

[16] = as §1; format: toxicity, organism-based; details: mouse, in vivo

Row | IC50 [1] | Compound | further results
1 | 130 nM | CCCc1cc(NCC(C)(C)N(CC)CC)nnc1-c1ccccc1O | 
2 | 30 nM | CCCc1cc(NC2CCCN2CC)nnc1-c1ccccc1 (racemic) | 
3 | > 100000 nM | O=C(O)c1cc(-c2ccccc2)nnc1NCCN1CCOCC1 | 
4 | > 100000 nM | Cc1cc(-c2ccccc2)nnc1NCCN1CCOCC1=O | 
5 | 400 nM | CCN(CC)C(C)(C)CNc1cc(C2CC2)c(-c2ccccc2)nn1 | 
6 | 2300 nM | CCN(CC)C(C)(C)CNc1cc(C)c(-c2ccccc2)nn1 | 
7 | 20 nM | CCN1CCCC1CNc1cc(-c2ccccc2)c(C)nn1 (configuration not stated) | inhibition (Mus musculus [5]): inactive; inhibition (Mus musculus [6]): inactive
8 | 1600 nM | CCCc1cc(NCCN2CCOCC2)nnc1-c1ccccc1 | 
9 | 1600 nM | CCc1cc(-c2ccccc2)nnc1NCCN1CCOCC1 | 
10 | 10 nM | CCCc1cc(NC2CCCN2CC)nnc1-c1ccccc1 (single isomer, unassigned; (-)) | 
11 | 12000 nM | c1ccc(-c2ccc(NCCN3CCOCC3)nn2)cc1 | 
12 | 6000 nM | Cc1cc(C2CCCCC2)nnc1NCCN1CCOCC1 | 
13 | 600 nM | c1ccc(-c2cc(-c3ccccc3)c(NCCN3CCOCC3)nn2)cc1 | 
14 | 16000 nM | c1ccc(-c2cc(Cc3ccc4ccccc4c3)c(NCCN3CCOCC3)nn2)cc1 | 
15 | 2000 nM | c1ccc2c(c1)CCCc1cc(NCCCN3CCOCC3)nnc1-2 | 
16 | > 100000 nM | O=Cc1cc(-c2ccccc2)nnc1NCCN1CCOCC1 | 
17 | 4600 nM | c1ccc(Cc2cc(-c3ccccc3)nnc2NCCN2CCOCC2)cc1 | 
18 | 110 nM | CCCc1cc(NCC(C)(C)N(CC)CC)nnc1-c1ccccc1 | ED50 (Mus musculus [7]): 0.12 mg/kg; IC50 (Mus musculus [8]): 50000 nM; Inhibition (Mus musculus [9]): 51%; Inhibition (Mus musculus [2]): 78%; IC50 (Rattus norvegicus [10]): 10000 nM; ED50 (Rattus norvegicus [11]): 0.1 mg/kg; ED50 (Mus musculus [12]): 0.027 mg/kg; ED50 (Mus musculus [13]): 0.25 mg/kg; Activity (Mus musculus [14]): inactive; Ki [15]: 112 nM
19 | 180 nM | CCN(CC)C(C)(C)CNc1cc(-c2ccccc2)c(C)nn1 | Inhibition (Mus musculus [9]): 65%; Inhibition (Mus musculus [2]): 85%

Row | IC50 [1] | Compound | further results
20 | 260 nM | CCN1CCCC1CNc1cc(C)c(-c2ccccc2)nn1 (configuration not stated) | 
21 | 7500 nM | Cc1cc(-c2ccc3ccccc3c2)nnc1NCCN1CCOCC1 | 
22 | 240 nM | CCN(CC)C(C)(C)CNc1cc(C)c(-c2ccccc2O)nn1 | 
23 | 17000 nM | Cc1cc(-c2ccccc2)nnc1NCCN1CCOCC1 [MINAPRINE] | 
24 | 8 nM | CCN1CCCC1CNc1cc(C)c(-c2ccccc2O)nn1 (configuration not stated) | 
25 | 240 nM | CCN(CC)CCNc1nnc(-c2ccccc2)cc1C | 
26 | 60 nM | CCCc1cc(NC2CCCN2CC)nnc1-c1ccccc1 (single isomer, unassigned; (+)) | 
27 | > 100000 nM | Cc1cc(-c2ccccc2)nnc1NCCN1CCC(O)CC1 | 
28 | 700 nM | Cc1c(NCCN2CCOCC2)nnc(-c2ccccc2)c1C | 
29 | 500 nM | Cc1cc(NCCCN(C)C)ccc1-c1ccccc1 | 
30 | 170 nM | c1ccc(-c2cc(NCCN3CCOCC3)nnc2-c2ccccc2)cc1 | 
31 | 140 nM | Cc1cc(NCCN(C)C)ccc1-c1ccccc1 | 
32 | 50 nM | CCCc1nnc(NCC(C)(C)N(CC)CC)cc1-c1ccccc1 | 
33 | 230 nM | Cc1cc(-c2ccccc2)nnc1NCCN(C)C | 
34 | 60000 nM | N#Cc1cc(-c2ccccc2)nnc1NCCN1CCOCC1 [BAZINAPRINE] | 
35 | 800 nM | CCN1CCCC1CNc1nnc(-c2ccccc2)cc1C (configuration not stated) | 
36 | 4000 nM | Cc1cc(-c2cccs2)nnc1NCCN1CCOCC1 | 
37 | 370 nM | c1ccc2c(c1)CCCc1cc(NCCN3CCOCC3)nnc1-2 | 

Row | Compound | IC50 [1] | further results
38 | CCN(CC)C(C)(C)CNc1cc(-c2ccccc2)c(-c2ccccc2)nn1 | 40 nM | Inhibition (Mus musculus [2]): 113%; LD50 [3]: 250 mg/kg; Inhibition (Mus musculus [4]): 87%
39 | CCN(CC)C(C)(C)CNc1cc(-c2ccccc2)c(CC(C)C)nn1 | 20 nM | LD50 [16]: 250 mg/kg
